Assay results: patent publication US9014457B2, “Quantifying cell death” (UCL Business PLC, priority 2009, dated 2015)
Entries after “also recorded” stand apart in the source; their conditions may differ. Read-outs that look alike come from different tables or passages of the source.

How the values were obtained:
cortical neurons = conditions: cited from earlier work
RGC [1] = conditions: rat, in vivo; cited from earlier work
[2] = in comparison to 360° laser trabeculoplasty; cited from earlier work
RGC apoptosis = test: DARC in vivo imaging of OHT rat eyes, topical CoQ10; conditions: topical on Day 0, 1, 7, 21 & 42; at 3 & 6 weeks after elevated IOP; vs control
Description: FIG. 14B DARC in vivo imaging of OHT rat eyes at 3 weeks after elevated intraocular pressure (IOP) showing increased RGC apoptosis (white spots) in Control (A) compared to CoQ10-treated (B) eyes.

Cyclophilin D = test: Histological cross sections of retina stained for Cyclophilin D, OHT rat eyes; type: in vivo
[3] = in vivo; cited from earlier work
[4] = tested on: retina autofluorescence (NADH, FAD); conditions: intravitreal administration
Description: Detection of FCCP-induced retinal metabolic changes in vivo in a mouse eye.

[5] = tested on: mitochondrial membrane potential in the retina; test: Mitochondrial membrane potential (MMP) in mouse eye in vivo, Rho123 fluorescence
Experimental: FIG. 11B. Early investigations show the effects of intravitreal rotenone on mitochondrial membrane potential (MMP) in a mouse eye in vivo.
FIG. 11C. Using the same analysis, we looked at the effects of Aβ25-35 on MMP in vivo in a mouse eye. Rho123 is a fluorescent probe, used to detect the changes in mitochondrial fluorescent density. […] The dashed line in C represents baseline fluorescence before Rho123 was injected

[6] = tested on: ROS production in the retina; test: ROS production in mouse retina in vivo visualized with DHE; conditions: intravitreal; vs vehicle/control eye
Experimental: FIG. 12B. The effects of rotenone on ROS production in mouse retina in vivo. ROS production visualized with DHE (dihydroethidium). DHE is a non-fluorescent agent, reacting with ROS intracellularly to produce a fluorescent oxidative product which can be detected. Rotenone (50 uM, 1 ul) was intravitreally injected into the one eye (C57) and the same volume of vehicle (saline) injected into the contralateral eye. DHE (1 ul) was then injected intravitreally and both eyes imaged to detect ROS production using a SLO machine.
FIG. 12C. The effects of PMA in producing ROS in mouse retina in vivo. PMA (50 ug/ml, 1 ul) was injected intravitreally into the one eye and saline (1 ul) into the contralateral eye. DHE (1 ul) was simultaneously injected for detecting ROS production.
FIG. 12D. The effects of Aβ25-35 on ROS production in vivo. DHE was intravitreally injected into the both eyes of a mouse to detect ROS production.

control cells = conditions: cited from earlier work
RGC [7] = test: Staurosporine (SSP)-induced RGC apoptosis model, time-lapse in vivo imaging; set-up: species or system rat
Experimental: For analysis of staurosporine-induced RGC apoptosis, 14 DA rats received 0.5 μg of intravitreal staurosporine (SSP) in 5 μl phosphate-buffered saline (PBS); both Sigma Aldrich UK, to induce RGC apoptosis as previously described (Cordeiro et al., 2004). Animals were imaged immediately for up to 6 hours, after which they were killed for histology.
Using a method the inventors have recently described, rats were given 2.5 μg of intravitreal Alexa Fluor 488 labelled annexin V in 5 μl PBS for identification of RGC apoptosis, 2 hours before in vivo imaging (Cordeiro et al., 2004). For mice, the inventors used 1 μl of a 0.25 mg/ml solution of IR-labelled annexin (Annexin-IR) in intravitreal injections as previously described (Schmitz-Valckenberg et al., 2008). […]
All rats had in vivo retinal imaging performed at regular and set intervals after experimental treatment, using a prototype Zeiss confocal scanning laser ophthalmoscope (cSLO), as previously described (Cordeiro et al., 2004; Maass et al., 2007). […] Colour and raw scatter plots of annexin and PI fluorescence intensity were constructed, so data could be analysed in a similar manner to data derived by in vitro FACS analysis. […] Fluorescence intensity counts derived from raw scatter plots were used to quantify each phase of cell death. […]

RGC [8] = conditions: previously established; cited from earlier work
cortical astrocytes = conditions: 1 mM glutamate or 10 mM methyl-succinate; cited from earlier work
RGC [9] = test: Abeta (Aβ25-35)-induced RGC death model, in vivo cSLO imaging with annexin V and PI; set-up: species or system mouse
Experimental: For the analysis of Abeta, freshly made Aβ25-35 (Sigma-Aldrich, 3.40 nmol) (Dahlgren et al., 2002) was intravitreally injected into C57 mice (n=10) (Maass et al., 2007). Animals were imaged at 72 hours. For AD 3× Tg-AD studies, 4 eyes (all female, 14 months) with 2 eyes from aged control mice (PS1KI; female, 18 months) were assessed. 3× Tg-AD and control PS1KI mice were obtained from a colony (maintained at CeSI) established after a generous gift of Frank Laferla. Intravitreal phorbol myristate acetate (1 μl of 10 μg/ml) was administered to left eyes of 3× Tg-AD animals, at the same time as annexin V and PI.
Using a method the inventors have recently described, rats were given 2.5 μg of intravitreal Alexa Fluor 488 labelled annexin V in 5 μl PBS for identification of RGC apoptosis, 2 hours before in vivo imaging (Cordeiro et al., 2004). For mice, the inventors used 1 μl of a 0.25 mg/ml solution of IR-labelled annexin (Annexin-IR) in intravitreal injections as previously described (Schmitz-Valckenberg et al., 2008).
In order to identify necrotic RGCs in rats (2 μl) and mice (1 μl), propidium iodide (PI; 0.4 mg/ml, 1% solution, Sigma-Aldrich, Dorset UK) was administered intravitreally at the same time as annexin, 2 hours before in vivo imaging. PI intercalates into nucleic acids, binding to double-stranded DNA, but only crosses the plasma membrane of non-viable cells. Cells that have lost membrane integrity are thus identified by fluorescent red PI staining throughout the nuclei.
In mice, the inventors used instrumentation as previously described (Maass et al., 2007; Schmitz-Valckenberg et al., 2008), with a modified cSLO (Heidelberg Retina Angiograph 2, Heidelberg Engineering, Dossenheim, Germany) and a wide-field lens (55°). The fluorescein angiogram (488 nm argon laser) and indocyanine green (IR 790 nm diode laser) settings were used to detect PI and IR-labelled annexin respectively. The same software was used to analyse video sequenced images as described before with whole retinal monochrome images from each eye recorded and colourised. Dual-color images were produced by combining each of the grayscale images from the cSLO into the red (PI), and green (IR annexin) of an RGB color image.
The left eye of each animal was treated with intravitreal 0.40 nmol MK801 at the same time as Abeta. Wide-angle retinal images were recorded 2 hours following intravitreal annexin (green) and PI (red), as previously described (Guo at al., 2006).
To assess the relative levels of early apoptosis, late apoptosis and necrosis the inventors studied the co-localization of PI and annexin V using ImageJ software with the Intensity Correlation Analysis plugin (Li et al., 2004). Colour and raw scatter plots of annexin and PI fluorescence intensity were constructed from plugin-generated data for each animal. Corresponding scatter plots (blue) from the eyes shown in FIG. 8a-b are illustrated in FIG. 8c-d. The data were analysed in a similar manner to data derived by in vitro FACS analysis, with four quadrants (midlines shaded in colour overlay as red, green, blue and yellow) enabling separation of the different phases of cell death as annexin V positive (early apoptosis, green), annexin V and PI double positive (late apoptosis, yellow) and PI positive (necrosis, red). Thresholds were set automatically by the plugin for each analysis of each eye. The inventors then used fluorescence intensity counts from the raw scatter plots to quantify each phase of cell death.
To further assess the analytical power of the technique, the inventors next investigated whether the level of oxidative stress in Abeta-treated eyes influenced the phase of cell death and whether this was possible to visualize in vivo. […] FIG. 8f-g are taken from the right untreated (F) and left PMA-treated (G) eye of an animal treated 72 hours previously with 3.40 nmol Aβ25-35. […]

[10] = tested on: calcium signals in the retina; test: Calcium signals in vivo in a mouse eye, Fura red; conditions: ten minutes after 5 nmol; vs pre-treatment, p<0.001
Description: FIG. 13B. The effects of Aβ25-35 on calcium signals in vivo in a mouse eye. […] Ten minutes after Aβ25-35 (5 nmol) application (as shown D) however, a stronger fluorescent signal was detected in the RGCL (C).

[11] = tested on: calcium signal in the retina; test: Calcium transients in calcium transgenic mouse eye (FCIPs) in vivo; conditions: intravitreal; vs baseline
Description: FIG. 13C Calcium transgenic mice with genetically-encoded fluorescent Ca2+ indicator proteins (FCIPs) were imaged in vivo. Aβ25-35-induced calcium transients in a calcium transgenic mouse eye. […] Analysis of the fluorescent signal after Aβ injection at t=o, is shown graphically with fluorescence seen in the areas Identified by coloured boxes in inset (D,E).

RGC [12] = conditions: previously established; cited from earlier work; remark: listed apart in the source
RGC [13] = conditions: topical application; cited from earlier work
[14] = human, in vivo; cited from earlier work

C[C@]12CC[C@@H]3c4ccc(O)cc4CC[C@H]3[C@@H]1CC[C@@H]2O [17β-estradiol]
neuronal integrity and function (cortical neurons): increased

Brc1c(NC2=NCCN2)ccc2nccnc12 [Brimonidine]
RGC survival (RGC [1]): positive effect | visual field deterioration [2]: reduced

COC1=C(OC)C(=O)C(C/C=C(\C)CC/C=C(\C)CC/C=C(\C)CC/C=C(\C)CC/C=C(\C)CC/C=C(\C)CC/C=C(\C)CC/C=C(\C)CC/C=C(\C)CCC=C(C)C)=C(C)C1=O [CoQ10, Ubiquinone]
RGC apoptosis (RGC apoptosis): significantly reduced | Cyclophilin D (CyD) in retina, histological grading (Cyclophilin D; 3 weeks after induction of OHT): increased; also recorded: significant increase | Cyclophilin D (CyD) in retina, histological grading (Cyclophilin D; 12 weeks after elevated IOP): not at 12 weeks | neuroprotection [3]: highly effective

N#CC(C#N)=NNc1ccc(OC(F)(F)F)cc1 [FCCP, Carbonylcyanide-p-trifluoromethoxy-phenylhydrazone]
real time autofluorescence in the retina [4]: increase

C=C(C)[C@H]1Cc2c(ccc3c2O[C@@H]2COc4cc(OC)c(OC)cc4[C@@H]2C3=O)O1 [Rotenone]
mitochondrial membrane depolarization (Rho123 signal) ([5]; intravitreal 20 uM, 1 ul, vs vehicle control): significant mitochondrial membrane depolarization | ROS production in the retina (DHE fluorescence) [6]: stronger fluorescent signals of ROS production | ROS production (MitoSox) (control cells): significant increase

CN[C@@H]1C[C@H]2O[C@@](C)([C@@H]1OC)n1c3ccccc3c3c4c(c5c6ccccc6n2c5c31)C(=O)NC4 [SSP, staurosporine]
cell death profile (phases) at time of peak apoptosis (RGC [7]; 2 h, co-localization scatter plot analysis): significantly more cells in the late phase of apoptosis; also recorded: significantly more RGCs in the phases of late apoptosis | PI staining over time (RGC [7]; SSP-treated rat eye, time-lapse video over 5 hours): clear increase | time point of maximal apoptosis (RGC [8]): 2 h

N[C@@H](CCC(=O)O)C(=O)O [glutamate]
slow progressive mitochondrial depolarization in response to Aβ 25-35 (cortical astrocytes): abolished almost completely

Aβ25-35: amyloid beta peptide fragment 25-35 (Sigma-Aldrich), induces RGC apoptosis (GSNKGAIIGLM; Amyloid-beta protein 42; UniProt P05067 696-706, looked up, fragment)
cell death profile (phases) at time of peak apoptosis (RGC [9]; 72 h, co-localization scatter plot analysis, listed as Abeta): significantly more cells in the late phase of apoptosis; also recorded: significantly more RGCs in the phases of late apoptosis | RGC death (RGC [9]; 72 hours after intravitreal administration of 3.40 nmol): Significant RGC death | MMP in the retina (Rho123) ([5]; vs baseline, few minutes delay, p<0.01): significant loss | ROS production in the retina (DHE fluorescence) [6]: significant increase of ROS production | calcium signals in the retina (Fura red) [10]: significant increase | fluorescent calcium signal in the retina [11]: immediate fluorescent calcium signal | time point of maximal apoptosis (RGC [12]): 72 h

NGF: nerve growth factor
RGC apoptosis (RGC [13]): reducing | functional effect in patients [14]: neuroprotective effects functionally
